The term inhibition denotes the drop in the measured response relative to a control, in per cent. As a reminder, the IC50 is the concentration that gives 50% inhibition. Low readings indicate greater potency, high ones weaker potency.

The values that follow come from ChEMBL document CHEMBL4130349, “Discovery and structure-activity relationship studies of 2-benzylidene-2,3-dihydro-1H-inden-1-one and benzofuran-3(2H)-one derivatives as a novel class of potential therapeutics for inflammatory bowel disease” (Eur J Med Chem, 2017).

The source made the active and inactive calls. The calls are words filed in the database; no cut-off is given here.

In assay [1] the test system is HT-29. The assay can be described thus: Inhibition of TNF-alpha-induced adhesion of BCECF-labeled human U937 cells to human HT-29 cells at 10 uM preincubated for 1 hr followed by TNF-alpha challenge measured after 3 hrs by fluorescence microscopic method relative to control. The format is functional.
Assay [2] has as its system HT-29. The assay can be described thus: Inhibition of TNF-alpha-induced adhesion of BCECF-labeled human U937 cells to human HT-29 cells preincubated for 1 hr followed by TNF-alpha challenge measured after 3 hrs by fluorescence microscopic method. The format is functional, cell-based.
For assay [3], the system named is HT-29. Put plainly: Inhibition of TNF-alpha-induced ICAM-1 expression in human HT-29 cells at 10 uM preincubated for 1 hr followed by TNF-alpha challenge measured after 3 hrs by Western blot analysis. The class given is functional, cell-based. (In general: Immunoblotting shows a protein as a band on a membrane.)
Assay [4] relates to HT-29. Put plainly: Inhibition of TNF-alpha-induced MCP-1 expression in human HT-29 cells at 10 uM preincubated for 1 hr followed by TNF-alpha challenge measured after 3 hrs by Western blot analysis. The format is functional, cell-based.
For assay [5], the system named is HT-29. The assay can be described thus: Inhibition of TNF-alpha-induced NFkappa-B transcriptional activity in human HT-29 cells at 10 uM preincubated for 1 hr followed by TNF-alpha challenge measured after 3 hrs by dual luciferase reporter gene assay. The format is functional, cell-based. In general terms: Reporter assays use an easily measured gene product as a stand-in for the process of interest.

The test system of assay [6] is HT-29. The assay can be described thus: Inhibition of TNF-alpha-induced ROS production in human HT-29 cells at 10 uM preincubated for 1 hr followed by TNF-alpha challenge measured after 30 mins by DCF-DA dye-based fluorescence microscopy. The class given is functional, cell-based.
For assay [7], the system named is HT-29. The assay can be described thus: Inhibition of TNF-alpha-induced ROS production in human HT-29 cells at 100 uM preincubated for 1 hr followed by TNF-alpha challenge measured after 30 mins by DCF-DA dye-based fluorescence microscopy. The class given is functional, cell-based.
The test system of assay [8] is HT-29. The assay can be described thus: Inhibition of LPS-induced TNF-alpha expression in human HT-29 cells at 10 uM preincubated for 1 hr followed by TNF-alpha challenge measured after 3 hrs by Western blot method. The format is functional, cell-based.
The subject of assay [9] is HT-29. The assay can be described thus: Inhibition of TNF-alpha-induced AP-1 transcriptional activity in human HT-29 cells at 10 uM preincubated for 1 hr followed by TNF-alpha challenge measured after 3 hrs by dual luciferase reporter gene assay. The class given is functional, cell-based.
Assay [10] has as its system Rattus norvegicus. Put plainly: Antiinflammatory activity in TNBS-induced Sprague-Dawley rat colitis model assessed as recovery of colon tissue edematous inflammation at 300 mg/kg, po qd administered for 5 days measured on day 6. The format is functional, organism-based.
The test system of assay [11] is Rattus norvegicus. Put plainly: Antiinflammatory activity in TNBS-induced Sprague-Dawley rat colitis model assessed as recovery in body weight decrease at 300 mg/kg, po qd administered for 5 days measured on day 6. The class given is functional, organism-based.
Assay [12] relates to HT-29. The assay can be described thus: Inhibition of TNF-alpha-induced adhesion of BCECF-labeled human U937 cells to human HT-29 cells at […] preincubated for 1 hr followed by TNF-alpha challenge measured after 3 hrs by fluorescence microscopic method relative to control. The class given is functional.
In assay [13] the test system is HT-29. Put plainly: Inhibition of LPS-induced TNF-alpha expression in human HT-29 cells at […] preincubated for 1 hr followed by TNF-alpha challenge measured after 3 hrs by Western blot method. The class given is functional, cell-based.

For `O=C1/C(=C/c2ccc(O)cc2)Cc2ccccc21`, the inhibition at 10 µM in [1] was found to be 72.6%. The compound further came in with an IC50 in [2] of 1.53 µM. Moreover, the inhibition entry in [3], in [4], in assay [5] and in [6] was “Active” in each case.

As for `O=C1/C(=C/c2cccc(F)c2)Cc2ccccc21`, the inhibition at 10 µM in assay [1] amounted to 22.1%.

As to `O=C1/C(=C/c2cccc(O)c2)Oc2cc(O)ccc21`, in assay [1], the inhibition at 10 µM was found to be 75.7%. In assay [2], the IC50 stood at 1.68 µM. The inhibition result in [3], in assay [4], in assay [5] and in assay [6] was “Active” throughout.

In the case of `O=C1/C(=C/c2ccccn2)Cc2ccccc21`, the inhibition at 10 µM in assay [1] was found to be 21.9%.

In the case of `O=C1/C(=C/c2ccccc2O)Oc2ccccc21`, the inhibition at 10 µM in assay [1] stood at 85.6%. In assay [2], this compound gave an IC50 of 0.95 µM. For the same compound, the inhibition entry in [3], in [4], in assay [5] and in assay [6] was “Active” throughout.

Consider `O=C1/C(=C/c2ccc(Cl)cc2)Oc2ccccc21`, for which the inhibition at 10 µM in [1] was 68.7%.

As for `COc1cc(C(C)=O)ccc1O`, the inhibition result in [7] is “Active”.

Consider `O=C1/C(=C/c2ccc(Cl)cc2)Cc2cccc(O)c21`, for which, in assay [1], the inhibition at 10 µM was determined as 78.4%. For the same compound, in assay [2], the IC50 turned out to be 1.64 µM. Also, the inhibition result in [3], in assay [4], in [5] and in assay [6] was “Active” each time.

On to `O=C1/C(=C/c2cccc([N+](=O)[O-])c2)Cc2ccccc21`, for which the inhibition at 10 µM in assay [1] turned out to be 46.5%.

As to `O=C1/C(=C/c2cccc(O)c2)Oc2ccccc21`, in assay [1], the inhibition at 10 µM worked out at 75.4%. Besides, the IC50 in assay [2] was 3.17 µM. Besides, the inhibition result in assay [3], in assay [4], in assay [5] and in [6] was “Active” each time.

As to `O=C1/C(=C/c2cccc(O)c2)Cc2ccccc21`, the inhibition at 10 µM in assay [1] amounted to 43.7%.

For the compound `O=C1/C(=C/c2ccc(O)cc2)Cc2ccc(O)cc21`, the inhibition at 10 µM in assay [1] was found to be 80.3%. Inhibition in [2] was half-maximal at 0.83 µM (IC50). The inhibition entry in [3], in assay [4], in assay [5], in [6], in assay [8] and in assay [9] was “Active” throughout.

Turning to `COc1ccc(/C=C2\Cc3cc(O)ccc3C2=O)cc1O`, the inhibition at 10 µM in [1] is -2.5%.

For `O=C1/C(=C/c2ccc(C(F)(F)F)cc2)Cc2ccccc21`, in [1], the inhibition at 10 µM amounted to 22.5%.

`O=C1/C(=C/c2ccc(O)cc2)Cc2cccc(O)c21`: the inhibition at 10 µM in assay [1] was found to be 69.8%.

For the compound `O=C1/C(=C/c2ccc(O)cc2)Cc2cc(O)ccc21`, the inhibition at 10 µM in [1] turned out to be 45.4%.

Regarding `O=C1/C(=C/c2ccccc2OC(F)(F)F)Cc2ccccc21`, in [1], the inhibition at 10 µM came out at 3.4%.

With `O=C1/C(=C/c2ccccc2Cl)Oc2ccccc21`, the inhibition at 10 µM in [1] was 50.7%.

Consider `O=C1/C(=C/c2ccccc2O)Cc2ccc(O)cc21`, for which the inhibition at 10 µM in [1] is 71.3%. In addition, the IC50 in assay [2] was 2.29 µM. The inhibition entry in assay [3], in assay [4], in assay [5] and in assay [6] was “Active” each time.

Regarding `O=C1/C(=C/c2cccc(OC(F)(F)F)c2)Cc2ccccc21`, the inhibition at 10 µM in assay [1] is 9.9%.

On to `O=C1/C(=C/c2ccccc2O)Cc2c(O)cccc21`, for which the inhibition at 10 µM in assay [1] turned out to be 30.3%.

Consider `O=C1/C(=C/c2ccc(Cl)cc2)Cc2ccccc21`, for which the inhibition at 10 µM in assay [1] was -6.1%.

With `O=C1/C(=C/c2ccc(Cl)s2)Cc2ccccc21`, the inhibition at 10 µM in assay [1] was determined as 5.7%.

Take `O=C1/C(=C/c2cccc(O)c2)Cc2c(O)cccc21`: the inhibition at 10 µM in assay [1] was determined as 6.1%.

`O=C1/C(=C/c2ccc(Cl)cc2)Cc2cc(O)ccc21`: the inhibition at 10 µM in [1] was determined as 0.2%.

Consider `O=C1/C(=C/c2cccnc2)Cc2ccccc21`, for which, in assay [1], the inhibition at 10 µM came to 28.7%.

`O=C1/C(=C/c2ccc(Cl)o2)Oc2ccccc21`: the inhibition at 10 µM in assay [1] worked out at 62.2%.

With `O=C1/C(=C/c2ccccc2Cl)Cc2ccccc21`, the inhibition at 10 µM in assay [1] is -4.3%.

As to `O=C1/C(=C/c2ccccc2)Cc2ccccc21`, the inhibition at 10 µM in assay [1] was 55.3%. In assay [2], this compound showed an IC50 of 5.75 µM. Besides, the inhibition result in [4] and in assay [5] was “Active” in each case.

For the compound `O=C1/C(=C/c2ccc(O)cc2)Cc2c(O)cccc21`, in assay [1], the inhibition at 10 µM was -1.7%.

Take `O=C1/C(=C/c2ccccc2O)Cc2ccccc21`: the inhibition at 10 µM in assay [1] was 63.1%.

Consider `COc1ccc(/C=C2\Cc3ccc(O)cc3C2=O)cc1O`, for which the inhibition at 10 µM in assay [1] stood at 12%.

Take `O=C1/C(=C/c2ccccc2F)Cc2ccccc21`: the inhibition at 10 µM in [1] came out at 27.8%.

With `COc1ccc(/C=C2\Cc3cccc(O)c3C2=O)cc1O`, the inhibition at 10 µM in assay [1] worked out at 35%.

As to `O=C1/C(=C/c2ccc(Cl)s2)Oc2ccccc21`, the inhibition at 10 µM in [1] is 75.1%. The compound also registered an IC50 in assay [2] of 3.72 µM. The inhibition result in assay [3], in assay [4], in [5] and in assay [6] was “Active” each time.

On to `O=C1/C(=C/c2ccccc2O)Cc2cccc(O)c21`, for which, in assay [1], the inhibition at 10 µM stood at 67.9%.

Turning to `O=C1/C(=C/c2cccc(Cl)c2)Oc2ccccc21`, the inhibition at 10 µM in assay [1] stood at 40%.

With `O=C1/C(=C/c2cccc(-c3ccccc3)c2)Cc2ccccc21`, the inhibition at 10 µM in assay [1] is 33.4%.

On to `O=C1/C(=C/c2cccc(O)c2)Cc2cccc(O)c21`, for which the inhibition at 10 µM in assay [1] stood at 60.5%.

Consider `O=C1/C(=C/c2ccc(-c3ccccc3)cc2)Cc2ccccc21`, for which the inhibition at 10 µM in [1] was determined as 62.6%.

On to `O=C1/C(=C/c2ccccc2Cl)Oc2cc(O)ccc21`, for which, in [1], the inhibition at 10 µM was 45.5%.

For the compound `COc1ccc(/C=C2\Cc3c(O)cccc3C2=O)cc1O`, in [1], the inhibition at 10 µM amounted to 0.1%.

Turning to `O=C1/C(=C/c2ccc(F)cc2)Cc2ccccc21`, in assay [1], the inhibition at 10 µM came out at 7.1%.

With `O=C1/C(=C/c2ccccc2O)Cc2cc(O)ccc21`, the inhibition at 10 µM in assay [1] worked out at 32.1%.

On to `O=C1/C(=C/c2ccc(Cl)cc2)Cc2ccc(O)cc21`, for which, in [1], the inhibition at 10 µM stood at 67.9%.

As to `O=C1/C(=C/c2ccc(OC(F)(F)F)cc2)Cc2ccccc21`, in assay [1], the inhibition at 10 µM is 34.5%.

`O=C1/C(=C/c2cccc(O)c2)Cc2ccc(O)cc21`: the inhibition at 10 µM in assay [1] was 62.7%.

Turning to `O=C1/C(=C/c2ccc(Cl)o2)Cc2ccccc21`, the inhibition at 10 µM in assay [1] was -8.9%.

For `O=C(O)c1cc(/N=N/c2ccc(S(=O)(=O)Nc3ccccn3)cc2)ccc1O`, the inhibition result in assay [10] and in assay [11] was “Active” in each case.

Take `O=C1/C(=C/c2cccc(Cl)c2)Cc2ccccc21`: the inhibition at 10 µM in assay [1] is -2.1%.

`O=C1/C(=C/c2ccc(Cl)cc2)Oc2cc(O)ccc21` [6-HYDROXY-4'-CHLORO AURONE]: the inhibition at 10 µM in assay [1] was 49%.

In the case of `Nc1ccc(O)c(C(=O)O)c1` [MESALAMINE], the inhibition at 10 µM in assay [1] came to 3.7%. Moreover, in [12], the inhibition came to 52.8%. For the same compound, the IC50 in assay [2] came to 20400 µM. Moreover, the inhibition result in assay [8] is “inactive”. Further, in [13], the inhibition result is “Active”.

Regarding `O=C1/C(=C/c2cccc(O)c2)Cc2cc(O)ccc21`, the inhibition at 10 µM in [1] was found to be 50.2%.

As for `O=C1/C(=C/c2ccc(O)cc2)Oc2ccccc21`, the inhibition at 10 µM in assay [1] was 63.6%.

As to `O=C1/C(=C/c2cccc(C(F)(F)F)c2)Cc2ccccc21`, the inhibition at 10 µM in assay [1] turned out to be 54.9%.

Consider `O=C1/C(=C/c2ccc(Cl)cc2)Cc2c(O)cccc21`, for which the inhibition at 10 µM in assay [1] is 10.6%.

As for `O=C1/C(=C/c2cccc(Cl)c2)Oc2cc(O)ccc21`, the inhibition at 10 µM in [1] turned out to be 45.9%.

For `O=C1/C(=C/c2ccccc2O)Oc2cc(O)ccc21`, the inhibition at 10 µM in [1] stood at 53.5%.

In the case of `O=C1/C(=C/c2ccccc2C(F)(F)F)Cc2ccccc21`, in assay [1], the inhibition at 10 µM was determined as 42.8%.
